Where “and” joins values, the source holds several entries; their conditions need not be identical. Equal entries are not always repeated. Where two headings read alike, the source gives them in different places.

Assay [1] concerns Aedes aegypti (Orlando strain) females. Description: Biting assay (mouse-in-cage). The class given is in vivo. Also noted: key to Difference between medians: Actual (vs. saline) / Difference between medians: Hodges-Lehmann (vs. saline): differences in percent biting (blood-fed/total females, %). The note with it: for Percentage of females that freshly blood-fed on an anesthetized mouse: fed 1 μM 48 h prior, 15 min exposure, individual replicates; for effect on biting / blood-feeding from a live host (in words): fed at a dose of 1 μM. Here is the method: Groups of 60–150 females were placed in bucket cages with a diameter of 21.6 cm and height of 16.5 cm (VWR) and fasted with access to water for 24 h prior to feeding. Meals were delivered to females via Glytube membrane feeders as described previously. Meals consisted of 1.5 ml sheep blood (HemoStat Laboratories), saline (400 mM NaHCO3 + dih2O), or saline and test compound. Lyophilized compounds were stored at room temperature until use. High-concentration stocks (30 mM in 100% dimethyl sulfoxide [DMSO]) (Sigma-Aldrich) were stored at −20 °C and diluted in saline immediately prior to feeding. Once prepared, meals and glycerol heating elements were warmed in a 42 °C water bath for 15 min to provide warmth to attract mosquitos to feed. […] Females were allowed 15–20 min to feed to repletion. Abdominal engorgement was scored by eye and confirmed by weighing females to ensure full feeding (Data S1). […] Females were returned to their original cage with a diH2O wick for 48 h prior to behavioral testing. The lethality of each compound was measured by counting the number of dead females in each cage 24 h post-meal.
This assay was modified from. Females were fed and scored as described above. Forty-eight hours post-meal, females were anesthetized in a 4 °C cold room and aspirated into a petri dish (Thermo Fisher Biosciences) with a randomly assigned color powder (Slice of the Moon; Chameleon Colors) to mark their treatment group. Females were then individually removed from the color powder, placed inside a cage measuring 91 cm × 61 cm × 61 cm (BugDorm), and allowed 2–4 h to recover. Each experiment consisted of a cage with 12–20 females in each treatment group including environmental (non-fed and blood-fed) and vehicle (saline-fed) control groups. The experiment began once an anesthetized mouse was introduced to the center of the cage, and females were allowed 15 min to blood-feed. The mouse was then removed, and the cage was placed at 4 °C to anesthetize females for collection. Females were aspirated into a large glass petri dish (Pyrex) and scored under a dissection microscope (Nikon SMZ1500) for powder color and blood-feeding status. Females were scored as blood-fed if fresh blood was present in the abdomen. Percent biting was calculated as females freshly blood-fed/total females in each respective treatment group.

The target in a further assay is Ae. aegypti NPYLR7 (Aedes aegypti, UniProt U5N1H5). Description: In vitro calcium (GCaMP6s) FLIPR assay in HEK293T cells transfected with NPYLR7. The note with it: for RFU: assay date 1/11/20 plate 1, duplicate wells, listed as TDI-012631-CL-1; for in vitro potency (in words): relative to reference compound TDI-012631. The class given is cell-based. An outline of the steps:
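HEK293T cells transiently co-transfected with GCaMP6s, mouse Gqα15 and NPYLR7; FLIPR imaging every second for 5 min, compound (0–100 μM) added after 30 s baseline in HBSS + 20 mM HEPES. Response normalized to buffer (0%) and 10 μM FMRFa3 (100%); relative EC50 by four-parameter fit, replicates averaged.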

Where [2] appears, read: Figure 1E Summary, third list (n = 39), read-out: Reported Metric (Summary list).
Where [3] appears, read: relative EC50, percent effect relative to 10 μM FMRFa3, read-out: EC50.
Setting [4] is: EC50 of the individual assay date/plate (assay date), read-out: EC50.
Where [5] appears, read: summary EC50 per compound (mean over assay dates), the unit is taken from the neighbouring EC50 (uM) column, read-out: Reported Metric.

Chain of Ae. aegypti NPYLR7 (U5N1H5 entry or part of it): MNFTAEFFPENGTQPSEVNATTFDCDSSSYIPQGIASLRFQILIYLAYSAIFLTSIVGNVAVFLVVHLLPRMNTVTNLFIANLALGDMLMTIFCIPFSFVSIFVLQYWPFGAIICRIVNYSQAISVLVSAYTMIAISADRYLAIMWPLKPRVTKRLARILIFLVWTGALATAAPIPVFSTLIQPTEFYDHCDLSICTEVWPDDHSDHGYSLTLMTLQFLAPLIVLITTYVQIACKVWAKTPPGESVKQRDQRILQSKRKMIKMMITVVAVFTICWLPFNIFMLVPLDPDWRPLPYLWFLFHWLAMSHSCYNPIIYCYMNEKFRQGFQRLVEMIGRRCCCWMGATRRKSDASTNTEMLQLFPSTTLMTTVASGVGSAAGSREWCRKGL

As to `COc1ccc2c(C)nc(NC(=N)N)nc2c1` [TDI-012631, reference compound], in assay [1] (fed 100 μM), the “Difference between medians: Actual (vs. saline)” value is -26. Further, the “Difference between medians: Hodges-Lehmann (vs. saline)” value in assay [1] (fed 100 μM) is -24.68. The “Median (percent freshly blood-fed)” value in assay [1] (fed 100 μM) is reported as 53.00, n=17%. The “Significantly different (P < 0.05)? vs. saline” value in assay [1] (fed 100 μM) was “Yes”. Further, in assay [1] (fed at a dose of 100 μM), the “effect on blood-feeding from a live host (in words)” value is listed as “inhibited blood-feeding”. Moreover, the RFU is 71 RFU and 55 RFU on Ae. aegypti NPYLR7 (0.00169350878084303uM); 71 RFU and 78 RFU at Ae. aegypti NPYLR7 (0.00508052634252909uM); 77 RFU and 71 RFU at Ae. aegypti NPYLR7 (0.0152415790275873uM); 80 RFU and 73 RFU on Ae. aegypti NPYLR7 (0.0457247370827618uM); 64 RFU and 79 RFU on Ae. aegypti NPYLR7 (0.137174211248285uM); 90 RFU and 78 RFU at Ae. aegypti NPYLR7 (0.411522633744856uM). Also, the RFU at Ae. aegypti NPYLR7 (3.7037037037037uM) was 273 RFU and 186 RFU; at Ae. aegypti NPYLR7 (11.1111111111111 uM), 265 RFU and 324 RFU; on Ae. aegypti NPYLR7 (33.333333 uM), 286 RFU and 301 RFU; at Ae. aegypti NPYLR7 (100 uM), 368 RFU and 331 RFU. The EC50 was 4.11 µM on Ae. aegypti NPYLR7 (setting [2]); 2.75 µM and 1.61 µM and 2.58 µM and 3.45 µM and 2.36 µM and 11.5 µM and 2.22 µM and 6.4 µM on Ae. aegypti NPYLR7 (Figure 1E, EC50 of the single assay date/plate, read-out: EC50); 4.11 µM on Ae. aegypti NPYLR7 (Figure 1E, metric reported per compound, repeated on every replicate line, read-out: Reported Metric (EC50)); 4.11 µM on Ae. aegypti NPYLR7 (setting [3]); 4.11 µM at Ae. aegypti NPYLR7 (sheet Figure 3C, unit inferred, read-out: EC50). Further, the “response at 0.0051(uM)” value at Ae. aegypti NPYLR7 (compound 0.0051 uM, single replicate well) is listed as -0.02145. In addition, at Ae. aegypti NPYLR7 (compound 0.0152 uM, single replicate well), the “response at 0.0152(uM)” value came to 3.235. Further, the “response at 0.4115(uM)” value at Ae. aegypti NPYLR7 (compound 0.4115 uM, single replicate well) is recorded as -1.786.
In the case of `CNc1nc(NC(=N)N)nc2cc(OCc3ccccc3)c(OC)cc12` [TDI-014184], in assay [1] (fed 1 μM), the “Difference between medians: Actual (vs. saline)” value is reported as -27.4; the “Difference between medians: Hodges-Lehmann (vs. saline)” value is on record as -24; the “Median (percent freshly blood-fed)” value was 47.00, n=11%; the “Significantly different (P < 0.05)? vs. saline” value is listed as “Yes”. Besides, the “Percentage of females that freshly blood-fed on an anesthetized mouse” value in assay [1] (listed as TDI-04184) is 65% and 81% and 47% and 10% and 44% and 86% and 33% and 56% and 35%. Also, the “effect on biting / blood-feeding from a live host (in words)” value in assay [1] is on record as “reduced biting behavior”. Further, the EC50 on Ae. aegypti NPYLR7 (setting [4]) turned out to be 0.49 µM. On Ae. aegypti NPYLR7 (setting [2]), the EC50 came to 0.49 µM. At Ae. aegypti NPYLR7 (HEK-293T, 0.0457 uM, single replicate, normalised response), the activation at 0.0457 µM worked out at 8.6%. Also, the activation at 11.1111 µM on Ae. aegypti NPYLR7 (HEK-293T, 11.1111 uM, single replicate, normalised response) stood at 91.4%. On Ae. aegypti NPYLR7 (setting [3]), the EC50 came to 0.49 µM. In addition, the “in vitro potency (in words)” value on Ae. aegypti NPYLR7 is recorded as “significantly improved in vitro potency”. The EC50 on Ae. aegypti NPYLR7 (setting [5]) was 0.49 µM.
`Cc1nc(NC(=N)N)nc2cc(N3CCc4ccccc4C3)ccc12` [TDI-014186]: the “Difference between medians: Actual (vs. saline)” value in assay [1] (fed 1 μM) is listed as -18.25. For the same compound, the “Difference between medians: Hodges-Lehmann (vs. saline)” value in assay [1] (fed 1 μM) is -17. The “Median (percent freshly blood-fed)” value in assay [1] (fed 1 μM) was 54.25, n=9%. For the same compound, the “Significantly different (P < 0.05)? vs. saline” value in assay [1] (fed 1 μM) is given as “Yes”. In addition, the “Percentage of females that freshly blood-fed on an anesthetized mouse” value in assay [1] (listed as TDI-04186) is 31% and 62% and 70% and 67% and 36% and 53% and 65%. Besides, the “effect on biting / blood-feeding from a live host (in words)” value in assay [1] is “effectively reduced biting”. For the same compound, the EC50 on Ae. aegypti NPYLR7 (setting [4]) amounted to 35.5 µM; on Ae. aegypti NPYLR7 (Figure 1E Summary, second list (n = 48), read-out: Reported Metric (Summary list)), 35.5 µM; on Ae. aegypti NPYLR7 (setting [3]), 35.5 µM; at Ae. aegypti NPYLR7 (setting [5]), 35.5 µM. In addition, the “in vitro potency (in words)” value at Ae. aegypti NPYLR7 is listed as “lower in vitro potency”.

These data come from article PMC11212260, “Next-generation neuropeptide Y receptor small-molecule agonists inhibit mosquito-biting behavior” (Parasites & Vectors, 2024).
